Laboratory results published in paper PMC7403138 (Clinical Pharmacokinetics, 2020).

Assay: Population pharmacokinetic analysis
Assay type: in vivo, human

| SMILES | central volume of distribution of atorvastatin and o-OH-atorvastatin (Vcator=Vcmet) (base PK model) [L] | metabolite clearance (CLo-OH-ator) (base PK model) [L/h] | o-OH-atorvastatin formed slower (presence vs absence of boosted ARVs, full dataset) [%] | FRator-oOH (base PK model) [%] | between-subject variability on CLator (base PK model, CV%) [%] | between-subject variability on FRator-oOH (base PK model, CV%) [%] | between-subject variability on Vcator=Vcmet (base PK model, CV%) [%] | decrease in logit(FRator-oOH) (coadministration of boosted ARVs) [%] |
| --- | --- | --- | --- | --- | --- | --- | --- | --- |
| CC(C)c1c(C(=O)Nc2ccccc2O)c(-c2ccccc2)c(-c2ccc(F)cc2)n1CC[C@@H](O)C[C@@H](O)CC(=O)O [o-OH-atorvastatin, ortho-hydroxy atorvastatin] | 3170 | 118 | 88 |  |  |  |  |  |
| CC(C)c1c(C(=O)Nc2ccccc2)c(-c2ccccc2)c(-c2ccc(F)cc2)n1CC[C@@H](O)C[C@@H](O)CC(=O)O [atorvastatin] |  |  |  | 11 | 94 | 131 | 137 | 225 |
